Like-named read-outs stand apart in the source and are kept apart here.
How the values were obtained:
[1] = cited from earlier work
[2] = in water at 25° C.; cited from earlier work
[3] = Cellvento CHO 200, text

Row | Structure (SMILES) | Solubility (water) PubChem Database ([1]; at 25° C.) | further results
1 | [Ca+2].[Cl-].[Cl-] [Calcium Chloride anhydrous] |  | Solubility (water) PubChem Database ([1]; at 20° C.): 745 g/l at
2 | O=C[C@@H](O)[C@@H](O)[C@H](O)[C@H](O)CO [D(+)-Mannose] |  | Solubility (water) PubChem Database ([1]; at 17° C.): 713 g/L bei
3 | O=C(CO)[C@@H](O)[C@H](O)[C@H](O)CO [D(−)-FRUCTOSE] | 200 g/100 ml | 
4 | C[C@H](N)C(=O)O [L-ALANINE] | 164 g/l water | 
5 | N[C@@H](CSSC[C@H](N)C(=O)O)C(=O)O [L-Cystine, L-cystine] |  | Solubility [2]: nearly insoluble; Maximal concentration in Cellvento CHO 200 at which the medium can still be completely dissolved in water [3]: below 0.1 g/L
6 | Cl.NCCCC[C@H](N)C(=O)O [L-LYSINE MONOHYDROCHLORIDE] | >100 g/100 g/100 ml | 
7 | CSCC[C@H](N)C(=O)O [L-Methionine] | 56.6 g/L water g/l | 
8 | [Cl-].[K+] [Potassium chloride] | 35.5/100 g /100 g water | 
